Organism: Rattus norvegicus
Assay: DrugMatrix - Regimen: Daily Repeat
Assay type: toxicity, organism-based, Sprague-Dawley
Parameters: regimen Daily Repeat, gender Male, age 6-8 weeks
Details: in vivo, po, route oral GAVAGE, vehicle .5 % CMC; for ABSOLUTE BASOPHIL / ABSOLUTE EOSINOPHIL / ABSOLUTE LYMPHOCYTE / ABSOLUTE MONOCYTE / ABSOLUTE SEGMENTED NEUTROPHIL / BASOPHIL / EOSINOPHIL / ERYTHROCYTE COUNT / HEMATOCRIT / HEMOGLOBIN / LEUKOCYTE COUNT / LYMPHOCYTE / MEAN CORPUSCULAR HEMOGLOBIN / MEAN CORPUSCULAR HEMOGLOBIN CONCENTRATION / MEAN CORPUSCULAR VOLUME / MONOCYTE / NEUTROPHIL / NUCLEATED RED BLOOD CELLS / PLATELET COUNT: tissue Blood; for ALANINE AMINOTRANSFERASE / ALBUMIN / ALKALINE PHOSPHATASE / ASPARTATE AMINOTRANSFERASE / BLOOD UREA NITROGEN / CARBON DIOXIDE / CHLORIDE / CHOLESTEROL / CREATINE PHOSPHOKINASE / CREATININE / GLUCOSE / LACTATE DEHYDROGENASE / LIPASE / PHOSPHORUS / POTASSIUM / SODIUM / TOTAL BILIRUBIN / TOTAL PROTEIN / URIC ACID: tissue Plasma
[1] = 0 mg/kg, 72 h, dose level Control, time 3 day
[2] = 0 mg/kg, 120 h, dose level Control, time 5 day
[3] = 100 mg/kg, 72 h, dose level Low, time 3 day

COC1=C(OC)C(=O)C(CCCCCCCCCCO)=C(C)C1=O [IDEBENONE]
ABSOLUTE BASOPHIL [1]: 0 CELLS/uL | ABSOLUTE EOSINOPHIL [1]: 0 CELLS/uL | ABSOLUTE LYMPHOCYTE [1]: 12191.17 CELLS/uL | ABSOLUTE MONOCYTE [1]: 183.17 CELLS/uL | ABSOLUTE SEGMENTED NEUTROPHIL [1]: 1192.33 CELLS/uL | BASOPHIL [1]: 0% | EOSINOPHIL [1]: 0% | ERYTHROCYTE COUNT [1]: 5.51 x10E6/uL | HEMATOCRIT [1]: 35.45% | HEMOGLOBIN [1]: 13.82 G/DL | LEUKOCYTE COUNT [1]: 13.57 x10E3/uL | LYMPHOCYTE [1]: 89.83% | MEAN CORPUSCULAR HEMOGLOBIN [1]: 25.1 pg | MEAN CORPUSCULAR HEMOGLOBIN CONCENTRATION [1]: 38.98 G/DL | MEAN CORPUSCULAR VOLUME [1]: 64.42 fL | MONOCYTE [1]: 1.33% | NEUTROPHIL [1]: 8.83% | NUCLEATED RED BLOOD CELLS [1]: 0 /100WBC | PLATELET COUNT [1]: 1118.17 x10E3/uL | ALANINE AMINOTRANSFERASE [1]: 55 u/L | ALBUMIN [1]: 4.15 G/DL | ALKALINE PHOSPHATASE [1]: 449.5 u/L | ASPARTATE AMINOTRANSFERASE [1]: 112.83 u/L | BLOOD UREA NITROGEN [1]: 17.33 mg/dL | CARBON DIOXIDE [1]: 29.5 mmol/L | CHLORIDE [1]: 101 MEQ/L | CHOLESTEROL [1]: 70 mg/dL | CREATINE PHOSPHOKINASE [1]: 1325.83 u/L | CREATININE [1]: 0.18 mg/dL | GLUCOSE [1]: 171.5 mg/dL | LACTATE DEHYDROGENASE [1]: 386 u/L | LIPASE [1]: 10 u/L | PHOSPHORUS [1]: 11.57 mg/dL | POTASSIUM [1]: 6.21 MEQ/L | SODIUM [1]: 141.65 MEQ/L | TOTAL BILIRUBIN [1]: 0.15 mg/dL | TOTAL PROTEIN [1]: 5.75 G/DL | URIC ACID [1]: 1.28 mg/dL | ABSOLUTE BASOPHIL [2]: 0 CELLS/uL | ABSOLUTE EOSINOPHIL [2]: 138.17 CELLS/uL | ABSOLUTE LYMPHOCYTE [2]: 13283.17 CELLS/uL | ABSOLUTE MONOCYTE [2]: 303.83 CELLS/uL | ABSOLUTE SEGMENTED NEUTROPHIL [2]: 1308.17 CELLS/uL | BASOPHIL [2]: 0% | EOSINOPHIL [2]: 1% | ERYTHROCYTE COUNT [2]: 5.32 x10E6/uL | HEMATOCRIT [2]: 33.8% | HEMOGLOBIN [2]: 13.63 G/DL | LEUKOCYTE COUNT [2]: 15.03 x10E3/uL | LYMPHOCYTE [2]: 88.33% | MEAN CORPUSCULAR HEMOGLOBIN [2]: 25.68 pg | MEAN CORPUSCULAR HEMOGLOBIN CONCENTRATION [2]: 40.35 G/DL | MEAN CORPUSCULAR VOLUME [2]: 63.67 fL | MONOCYTE [2]: 1.83% | NEUTROPHIL [2]: 8.83% | NUCLEATED RED BLOOD CELLS [2]: 0 /100WBC | PLATELET COUNT [2]: 1097.5 x10E3/uL | ALANINE AMINOTRANSFERASE [2]: 54.5 u/L | ALBUMIN [2]: 4.27 G/DL | ALKALINE PHOSPHATASE [2]: 337 u/L | ASPARTATE AMINOTRANSFERASE [2]: 94.67 u/L | BLOOD UREA NITROGEN [2]: 17 mg/dL | CARBON DIOXIDE [2]: 28.33 mmol/L | CHLORIDE [2]: 101.5 MEQ/L | CHOLESTEROL [2]: 71.33 mg/dL | CREATINE PHOSPHOKINASE [2]: 628.17 u/L | CREATININE [2]: 0.19 mg/dL | GLUCOSE [2]: 177.83 mg/dL | LACTATE DEHYDROGENASE [2]: 500.5 u/L | LIPASE [2]: 9.5 u/L | PHOSPHORUS [2]: 12.3 mg/dL | POTASSIUM [2]: 5.63 MEQ/L | SODIUM [2]: 143.03 MEQ/L | TOTAL BILIRUBIN [2]: 0.2 mg/dL | TOTAL PROTEIN [2]: 6.02 G/DL | URIC ACID [2]: 1.5 mg/dL | ABSOLUTE BASOPHIL [3]: 0 CELLS/uL | ABSOLUTE EOSINOPHIL [3]: 86.67 CELLS/uL | ABSOLUTE LYMPHOCYTE [3]: 16240.33 CELLS/uL | ABSOLUTE MONOCYTE [3]: 104 CELLS/uL | ABSOLUTE SEGMENTED NEUTROPHIL [3]: 1602.33 CELLS/uL | BASOPHIL [3]: 0% | EOSINOPHIL [3]: 0.67% | ERYTHROCYTE COUNT [3]: 5.22 x10E6/uL | HEMATOCRIT [3]: 32.37% | HEMOGLOBIN [3]: 13.17 G/DL | LEUKOCYTE COUNT [3]: 18.03 x10E3/uL | LYMPHOCYTE [3]: 90.33% | MEAN CORPUSCULAR HEMOGLOBIN [3]: 25.27 pg | MEAN CORPUSCULAR HEMOGLOBIN CONCENTRATION [3]: 40.67 G/DL | MEAN CORPUSCULAR VOLUME [3]: 62.07 fL | MONOCYTE [3]: 0.67% | NEUTROPHIL [3]: 8.33% | NUCLEATED RED BLOOD CELLS [3]: 0 /100WBC | PLATELET COUNT [3]: 1354 x10E3/uL | ALANINE AMINOTRANSFERASE [3]: 57.67 u/L | ALBUMIN [3]: 3.97 G/DL | ALKALINE PHOSPHATASE [3]: 401 u/L | ASPARTATE AMINOTRANSFERASE [3]: 105.67 u/L | BLOOD UREA NITROGEN [3]: 17.67 mg/dL | CARBON DIOXIDE [3]: 26.33 mmol/L | CHLORIDE [3]: 101 MEQ/L | CHOLESTEROL [3]: 67 mg/dL | CREATINE PHOSPHOKINASE [3]: 961.67 u/L | CREATININE [3]: 0.19 mg/dL | GLUCOSE [3]: 227 mg/dL | LACTATE DEHYDROGENASE [3]: 252 u/L | LIPASE [3]: 9.67 u/L | PHOSPHORUS [3]: 13.13 mg/dL | POTASSIUM [3]: 6.02 MEQ/L | SODIUM [3]: 142.43 MEQ/L | TOTAL BILIRUBIN [3]: 0.2 mg/dL | TOTAL PROTEIN [3]: 5.47 G/DL | URIC ACID [3]: 1.67 mg/dL
